Results: article PMC9146984, “A Novel Proline-Rich Cathelicidin from the Alpaca Vicugna pacos with Potency to Combat Antibiotic-Resistant Bacteria: Mechanism of Action and the Functional Role of the C-Terminal Region” (Membranes, 2022)
≈ marks a conversion by molar mass, not a printed value. Like-named read-outs stand apart in the source and are kept apart here. Where a SMILES comes first, the peptide text is derived from it.

Legend:
E. coli = assay: Antimicrobial assay (MIC), E. coli strains; type: cell-based, Escherichia coli; settings: Mueller–Hinton broth without NaCl
Procedure: (§1) The reduction of resazurin to resorufin was measured.

[1] = tested on: E. coli BL21 (DE3) Star cell extract, coupled transcription/translation of EGFP; assay: In vitro transcription/translation inhibition assay (cell-free EGFP synthesis); type: biochemical, Escherichia coli; settings: EGFP fluorescence, 2 h, 30 °C; at least two independent experiments in triplicate; read-out: IC50, inhibition of in vitro protein synthesis in the E. coli cell-free system
Procedure: To investigate the effect of cathelicidins on the coupled transcription/translation process, the peptides were added to a cell-free protein synthesis (CFPS) reaction mix with a plasmid encoding enhanced green fluorescent protein (EGFP) variant (F64L, S65T, Q80R, F99S, M153T, and V163A) under control of the T7 promoter as described previously with some modifications. Briefly, the peptides were dissolved in 0.1% BSA in water. Bac7[1–22] was used as a positive control inhibitor. The fluorescence of the sample without inhibitor was set as the 100% value. The reaction proceeded for 2 h in 96-well v-bottom black polystyrene microplates in a plate shaker (30 °C, 1000 rpm). The fluorescence of the synthesized EGFP was measured with the microplate reader AF2200 (λExc = 488 nm, λEm = 510 nm; Eppendorf, Hamburg, Germany). The experimental data were obtained from at least two independent experiments performed in triplicate. Non-linear regression curves were generated using GraphPad Prism v.8.0.1 (GraphPad Software Inc., San Diego, CA, USA).

E. coli BW25113 = type: cell-based, Escherichia coli; settings: BW25113, 24 h
Procedure: as §1

E. coli BW25113 ΔmdtM = type: cell-based, Escherichia coli; settings: Mueller–Hinton broth, 24 h, 37 °C, median
Procedure: as §1

E. coli BW25113 ΔompF = type: cell-based, Escherichia coli; settings: Mueller–Hinton broth, 24 h, 37 °C, median
Procedure: as §1

E. coli ATCC 25922 = type: cell-based, Escherichia coli; settings: ATCC 25922, 24 h
Procedure: as §1

E. coli BW25113 ΔsbmA = type: cell-based, Escherichia coli; settings: Mueller–Hinton broth, 24 h, 37 °C, median
Procedure: as §1

Compound	killing of E. coli under salt-free conditions (E. coli) [µM]	IC50 [1] [µM]	Minimum inhibitory concentration, E. coli strain BW25113 (E. coli BW25113) [µM]	Minimum inhibitory concentration, E. coli strain ΔmdtM (E. coli BW25113 ΔmdtM; 0.9% NaCl: +) [µM]	Minimum inhibitory concentration, E. coli strain ΔmdtM (E. coli BW25113 ΔmdtM; 0.9% NaCl: −) [µM]	Minimum inhibitory concentration, E. coli strain ΔompF (E. coli BW25113 ΔompF; 0.9% NaCl: +) [µM]	Minimum inhibitory concentration, E. coli strain ΔompF (E. coli BW25113 ΔompF; 0.9% NaCl: −) [µM]	Minimum inhibitory concentration, E. coli strain ATCC 25922 (E. coli ATCC 25922) [µM]	Minimum inhibitory concentration, E. coli strain ΔsbmA (E. coli BW25113 ΔsbmA; 0.9% NaCl: +) [µM]	Minimum inhibitory concentration, E. coli strain ΔsbmA (E. coli BW25113 ΔsbmA; 0.9% NaCl: −) [µM]
CC[C@H](C)[C@H](NC(=O)[C@H](CCCNC(=N)N)NC(=O)[C@@H](N)CCCNC(=N)N)C(=O)N[C@@H](CCCNC(=N)N)C(=O)N[C@@H](CCCNC(=N)N)C(=O)N1CCC[C@H]1C(=O)N[C@@H](CCCNC(=N)N)C(=O)N[C@@H](CC(C)C)C(=O)N1CCC[C@H]1C(=O)N[C@@H](CCCNC(=N)N)C(=O)N1CCC[C@H]1C(=O)N[C@@H](CCCNC(=N)N)C(=O)N[C@H](C(=O)N1CCC[C@H]1C(=O)N[C@@H](CCCNC(=N)N)C(=O)N1CCC[C@H]1C(=O)O)C(C)C [VicBac[1-16]] (H-RRIRRPRLPRPRVPRP-OH)	4 to 8	~4	–	–	–	–	–	–	–	–
CC[C@H](C)[C@H](NC(=O)[C@H](CCCNC(=N)N)NC(=O)[C@@H]1CCCN1C(=O)[C@H](CCCNC(=N)N)NC(=O)[C@@H]1CCCN1C(=O)[C@@H](NC(=O)[C@H](CCCNC(=N)N)NC(=O)[C@@H]1CCCN1C(=O)[C@H](CCCNC(=N)N)NC(=O)[C@@H]1CCCN1C(=O)[C@H](CC(C)C)NC(=O)[C@H](CCCNC(=N)N)NC(=O)[C@@H]1CCCN1C(=O)[C@H](CCCNC(=N)N)NC(=O)[C@H](CCCNC(=N)N)NC(=O)[C@@H](NC(=O)[C@H](CCCNC(=N)N)NC(=O)[C@@H](N)CCCNC(=N)N)[C@@H](C)CC)C(C)C)C(=O)O [VicBac[1-18]] (H-RRIRRPRLPRPRVPRPRI-OH; N-terminus and C-terminus assumed)	–	–	4 (≈ 9.39 µg/mL)	2 (≈ 4.7 µg/mL)	4 (≈ 9.39 µg/mL)	16 (≈ 37.6 µg/mL)	8 (≈ 18.8 µg/mL)	2 (≈ 4.7 µg/mL)	> 64	4 (≈ 9.39 µg/mL)
